# Test results from patent US8697668B2, “Compositions and methods for preventing and treating cancer via modulating UBE1L, ISG215 and/or UBP43” (Trustees of Dartmouth College, priority 2002, dated 2014).
# Like-named read-outs stand apart in the source and are kept apart here. Where a SMILES comes first, the peptide text is derived from it. [ ]: non-standard residue; d: D form. Nle = CCCC[C@H](N)C(=O)O
# What was measured:
# [1] = test system: ISG15-conjugated cyclin D1; test: Immunoprecipitation/immunoblot of ISG15-cyclin D1 conjugates in BEAS-2B cells; format: cell-based, human; conditions: BEAS-2B cells co-transfected with UBE1L, ISG15 and cyclin D1
# Excerpt: Cells were lysed with ice-cold radioimmunoprecipitation (RIPA) lysis buffer, using established techniques (Pitha-Rowe, et al. (2004) supra; Pitha-Rowe, et al. (2004) supra; Feng, et al. (2007) supra; Ma, et al. (2005) Cancer Res. 65:6476-83). Lysates were size-fractionated by sodium dodecyl sulphate-polyacrylamide gel electrophoresis (SDS-PAGE) assays before transfer to nitrocellulose membranes (Schleicher & Schuell Bioscience, Inc., Keene, N.H.). The polyclonal antibody recognizing the UBE1L amino terminus of UBE1L was used for immunoblot and immunohistochemical assays. Other primary antibodies for immunoblot assays included a rabbit polyclonal antibody recognizing cyclin D1 (M-20) (Santa Cruz Biotechnology, Santa Cruz, Calif.), a murine monoclonal antibody against hemagglutinin (HA)-tagged proteins (Babco, Richmond, Calif.) and a goat polyclonal antibody recognizing actin (Santa Cruz Biotechnology). Anti-mouse and anti-rabbit antisera were purchased (Amersham Biosciences, Piscataway, N.J.) as was anti-goat antisera (Santa Cruz Biotechnology) and these were used as respective secondary antibodies. Membranes used for immunoblot analyses were treated with the MEMCODE reversible stain (Pierce, Rockford, Ill.). […] Quantification of signal intensities was scored as before (Shah, et al. (2008) supra; Feng, et al. (2007) supra; Ma, et al. (2005) supra). […]
# ISG15 [2] = test: ISG15 immunohistochemical expression, post- versus pretreatment lung cancer biopsies; format: in vivo; conditions: post- and pre-bexarotene treatment biopsies of the lung cancer cases
# Excerpt: (§1) Paraffin-embedded and formalin-fixed tissues were obtained from an Institutional Review Board-approved proof of principle bexarotene lung cancer trial (Dragnev, et al. (2007) supra). Tissues were examined for cyclin D1 (Petty, et al. (2004) supra; Dragnev, et al. (2007) supra; Dragnev, et al. (2005) supra), UBE1L (Pitha-Rowe, et al. (2004) supra), ISG15 (Andersen, et al. (2006) Br. J. Cancer 94:1465-71), and Ki-(Petty, et al. (2004) supra; Dragnev, et al. (2007) supra; Dragnev, et al. (2005) supra) immunohistochemical expression profiles.
# cyclin D1 [3] = test: Cyclin D1 immunoblot in BEAS-2B cells; format: cell-based, human
# Protocol: (§2) The H358 lung cancer cell line was cultured in RPMI-1640 medium (INVITROGEN Corporation, Carlsbad, Calif.) containing L-glutamine, 10% fetal bovine serum and 1% antibiotic-antimycotic solution (CELLGRO, Herndon, Va.) (Petty, et al. (2004) Clin. Cancer Res. 10:7547-54). Cells were incubated at 37° C. in a humidified incubator with 5% CO2. Bexarotene treatments of HBE and lung cancer cells were accomplished according to known methods (Dragnev, et al. (2007) Clin. Cancer Res. 13:1794-800; Dragnev, et al. (2005) J. Clin. Oncol. 23:8757-64).
# (§3) Cells were lysed with ice-cold radioimmunoprecipitation (RIPA) lysis buffer, using established techniques (Pitha-Rowe, et al. (2004) supra; Pitha-Rowe, et al. (2004) supra; Feng, et al. (2007) supra; Ma, et al. (2005) Cancer Res. 65:6476-83). Lysates were size-fractionated by sodium dodecyl sulphate-polyacrylamide gel electrophoresis (SDS-PAGE) assays before transfer to nitrocellulose membranes (Schleicher & Schuell Bioscience, Inc., Keene, N.H.). The polyclonal antibody recognizing the UBE1L amino terminus of UBE1L was used for immunoblot and immunohistochemical assays. […] Quantification of signal intensities was scored as before (Shah, et al. (2008) supra; Feng, et al. (2007) supra; Ma, et al. (2005) supra). […]
# UBE1L [4] = test: UBE1L immunoblot in BEAS-2B cells; format: cell-based, human; conditions: 1 μM, 10 days treatment versus vehicle
# Protocol: as §2, §3
# [5] = cited from earlier work
# cyclin D1 [6] = test: Cyclin D1 immunohistochemical expression, post- versus pretreatment lung cancer biopsies; format: in vivo
# Excerpt: as §1
# UBE1L [7] = test: UBE1L immunohistochemical expression, post- versus pretreatment lung cancer biopsies; format: in vivo
# Excerpt: as §1
# cyclin D1 [8] = test: Cyclin D1 immunoblot in H358 cells; format: cell-based
# Protocol: as §2, §3
# [9] = test system: BEAS-2B human bronchial epithelial cells; test: Clonal growth assay; format: cell-based; conditions: bexarotene treatment, FIG. 2
# Protocol: Human bronchial epithelial cells (BEAS-2B) were cultured in serum-free LHC-9 medium (Biofluids, Rockville, Md.) in accordance with established techniques (Langenfeld, et al. (1997) Proc. Natl. Acad. Sci. USA 94:12070-12074; Boyle, et al. (1999) J. Natl. Cancer Inst. 91:373-379).
# Five μg of MSCVIRES-UBE1L-GFP and an empty vector were independently transfected into the Phoenix Amphotropic packaging cell line (ATCC, Manassas, Va.) using EUGENE 6 (Roche, Indianapolis, Ind.), and the vendor's recommended procedures. Forty-eight hours later, viral supernatants were […] respective transduced BEAS-2B HBE or H358 lung cancer cells with 4 μg/ml POLYBRENE (Sigma). Forty-eight hours later, cells positive for GFP expression were harvested using a FACSTAR Plus (Becton Dickinson, San Jose, Calif.) high speed sorting cytometer. This was repeated one week later to enrich for studied transductants.
# Clonal growth assays (Langenfeld, et al. (1996) Oncogene 13:1983-90) were performed using 5×10^2 BEAS-2B and 1×10^3 H358 cells. These cells were independently engineered to over-express UBE1L or a control vector. […] Two weeks later, visible colonies were fixed and stained with DIFF QUIK solution (Baxtor, McGaw Park, Ill.) and quantified with the Col Count instrument (Oxford Optronix, Oxford, UK).
# Ki-67 = Ki-67 immunostaining (proliferation), post- versus pretreatment lung cancer biopsies; format: in vivo
# Excerpt: as §1
# UBE1L [10] = test: UBE1L mRNA expression, reverse transcription-PCR in NB4 APL cells; format: cell-based; conditions: 10 μM RA
# Protocol: (§4) The NB4 APL cell line expresses PML/RARα (Lanotte, et al. (1991) Blood 77:1080-1086). NB4-S1 and NB4-R1 are RA-sensitive and RA-resistant clones of NB4 cells, respectively (Nason-Burchanel, et al. (1997) Differentiation 61:321-331). These cells were cultured in RPMI-1640 medium supplemented with 10% FBS (see, Nason-Burchenal et al. (1997) supra).
# UBE1L mRNA expression was assessed by a reverse transcription-PCR assay in accordance with established methods (Kakizuka et al. (1991) Cell 68:663-674). The forward primer was 5′-AGGTGGCCAAGAACTTGGTT-3′ (SEQ ID NO:8), and the reverse primer was 5′-CACCACCTGGAAGTCCAACA-3′ (SEQ ID NO:9). The PCR product was visualized by probing with a ^32P-labeled primer. Results were confirmed independently by Northern analysis using a 1.0-kb EcoRI/NcoI-radiolabeled UBE1L probe in accordance with standard techniques (Langenfeld et al. (1997) Proc. Natl. Acad. Sci. USA 94:12070-12074). This probe had limited homology to E1.
# E1 = E1 mRNA expression in NB4-S1 cells; format: cell-based; conditions: RA 1 μM
# NB4-S1 APL cells = test: NBT reduction maturation (differentiation) assay; format: cell-based; conditions: 5 days treatment with RA (1 μM)
# Protocol: as §4
# NB4 cell differentiation was scored by using the nitroblue tetrazolium (NBT) reduction assay (Nason-Burchenal, et al. (1997) supra; Nason-Burchenal, et al. (1998a) Blood 92:1758-1767; Nason-Burchanel, et al. (1998b) Oncogene 17:1759-1768) Transductants were identified by green fluorescent protein (GFP) coexpression. Apoptosis was scored by using established techniques and Hoechst staining of transductants that co-expressed GFP (Nason-Burchenal, et al. (1998a) supra; Nason-Burchenal, et al. (1998b) supra; Stadheim, et al. (2001) Cancer Res. 61:1533-1540). Digital images were collected using an OLYMPUS 1×70 inverted microscope, a cooled charge-coupled device camera, and a MIRACAL Pro Single Cell Imaging System (OLYMPUS LSR Research, Melville, N.Y.).
# UBE1L [11] = test: UBE1L immunoblot expression in NB4 cells; format: cell-based; conditions: NB4-S1 APL cells, RA 1 μM
# Excerpt: Two rabbit polyclonal antibodies against UBE1L were independently derived (Covance Research Products, Denver, Pa.) using one peptide within the amino terminus (Asp-Cys-Asp-Pro-Arg-Ser-Ile-His-Val-Arg-Glu-Asp-Gly-Ser-Leu-Glu-Ile-Gly-Asp (SEQ ID NO:10)) and a second peptide within the carboxyl terminus (Pro-Gly-Ser-Gln-Asp-Trp-Thr-Ala-Leu-Arg-Glu-Leu-Leu-Lys-Leu-Leu (SEQ ID NO:11)). Specificities of these antisera were confirmed by immunoblot analyses of UBE1L-transfected CHO cells.
# Immunoblot analyses were performed using established techniques (Langenfeld, et al. (1997) Proc. Natl. Acad. Sci. USA 94:12070-12074; Spinella, et al. (1999) J. Biol. Chem. 274:22013-22018). Anti-RARα antibody was provided by and can be purchased from P. Chambon (Institut National de la Sant et de la Recherche Mdicale, Strasbourg, France) to detect PML/RARα (Nason-Burchenal, et al. (1998) Blood 92:1758-1767; Nason-Burchenal, et al. (1998) Oncogene 17:1759-1768). An anti-HA mAb was purchased (Babco, Richmond, Calif.) as was an anti-actin polyclonal antibody, C-11 (Santa Cruz Biotechnology, Santa Cruz, Calif.).
# ISG15 [12] = test: ISG15 expression and conjugation in NB4 cells; format: cell-based
# [13] = lung cancer case with high levels
# [14] = representative lung cancer case with low levels
# [15] = case with low bexarotene levels
smiles,measurement,setting,value
CCCC[C@@H](C=O)NC(=O)[C@H](CC(C)C)NC(=O)[C@H](CC(C)C)NC(C)=O [ALLN] (Ac-Leu-Leu-[Nle]-aldehyde),ISG15ylated cyclin D1 species,[1],stabilized
C=C(c1ccc(C(=O)O)cc1)c1cc2c(cc1C)C(C)(C)CCC2(C)C [Bexarotene],ISG15 immunohistochemical expression,ISG15 [2],similar
same,cyclin D1 protein,cyclin D1 [3],repressed
same,UBE1L expression,UBE1L [4],prominently increased
same,bexarotene intratumoral level,[5]; [13],0.31 µM
same,bexarotene plasma level,[5]; [13],1.49 µM
same,bexarotene intratumoral level,[5]; [14],0.09 µM
same,bexarotene plasma level,[5]; [14],0.13 µM
same,cyclin D1 expression in post-versus pre-treatment biopsies,cyclin D1 [6]; case with high bexarotene plasma and intratumoral levels,declined
same,cyclin D1 immunohistochemical expression profile,cyclin D1 [6]; [15],not appreciably altered
same,"odds ratio, association between intratumoral bexarotene concentration and UBE1L increase","UBE1L [7]; 95% asymptotic CI 0.1, 354.9",6
same,UBE1L immunohistochemical expression,UBE1L [7]; case with high bexarotene levels,increase
same,UBE1L immunohistochemical expression profile,UBE1L [7]; [15],not appreciably altered
same,response rate for UBE1L,"UBE1L [7]; five cases examined, 95% CI 1, 72",20%
same,cyclin D1 protein,cyclin D1 [8],repressed
same,BEAS-2B clonal growth,[9],dose-dependent decline
same,BEAS-2B clonal growth,[9]; listed as bexarotene,Dose-dependent inhibition
same,"proliferation, Ki-67 immunostaining","Ki-67; case with high bexarotene levels, post-versus pretreatment biopsies",decrease
same,Repression of Ki-67 immunostaining,Ki-67; [15],not observed
"CC1=C(/C=C/C(C)=C/C=C/C(C)=C/C(=O)O)C(C)(C)CCC1 [RA, All-trans-retinoic acid]",UBE1L expression,"UBE1L [10]; RA-resistant NB4-R1 cell line, same time period",not induced
same,UBE1L mRNA induction,"UBE1L [10]; RA-sensitive NB4-S1 cells, reverse transcription-PCR",induction occurred by three hours
same,E1 mRNA,E1,not induced
same,"NBT, %",NB4-S1 APL cells,92%
same,UBE1L protein expression,UBE1L [11],induced
same,ISG15 expression,ISG15 [12]; RA-sensitive NB4 cells,augments
same,intracellular ISG15 conjugation,ISG15 [12]; retinoid-sensitive NB4 cells,increases
